From US7205304B2, “Sulfonyl-Derivatives as novel inhibitors of histone deacetylase” (Janssen Pharmaceutica N.V., priority 2002, dated 2007)
Values after ≈ are worked out from the molar mass of the structure shown.

What was measured:
[1] = Kinetic solubility in aqueous media (nephelometry); type: physicochemical; conditions: phosphate citrate buffer, pH 7.4, aqueous buffer, kinetic from dmso stock, phosphate citrate buffer pH 7.4, turbidity of three dilution steps; read-out: Solubility Score
Description: Kinetic solubility in aqueous media measures the ability of a compound to stay in aqueous solution upon dilution (see example C.3).
DMSO-stock solutions are diluted with a single aqueous buffer solvent in 3 consecutive steps. For every dilution turbidity is measured with a nephelometer.
In the first dilution step, 10 μl of a concentrated stock-solution of the active compound, solubilized in DMSO (5 mM), was added to 100 μl phosphate citrate buffer pH 7.4 and mixed. In the second dilution step, an aliquot (20 μl) of the first dilution step was further dispensed in 100 μl phosphate citrate buffer pH 7.4 and mixed. Finally, in the third dilution step, a sample (20 μl) of the second dilution step was further diluted in 100 μl phosphate citrate buffer pH 7.4 and mixed. All dilutions were performed in 96-well plates. Immediately after the last dilution step the turbidity of the three consecutive dilution steps were measured with a nephelometer. Dilution was done in triplicate for each compound to exclude occasional errors. Based on the turbidity measurements a ranking is performed into 3 classes. Compounds with high solubility obtained a score of 3 and for this compounds the first dilution is clear. Compounds with medium solubility obtained a score of 2. For these compounds the first dilution is unclear and the second dilution is clear. […] The solubility of 112 compounds was measured.

[2] = biological target: histone deacetylase (HeLa nuclear extracts); test: In vitro assay for inhibition of histone deacetylase; type: biochemical; conditions: [3H]acetylated histone H4 peptide substrate
Description: The in vitro assay for inhibition of histone deacetylase (see example C.1) measures the inhibition of HDAC enzymatic activity obtained with the compounds of formula (I).
HeLa nuclear extracts (supplier: Biomol) were incubated at 60 μg/ml with 2×10^−8 M of radiolabeled peptide substrate. As a substrate for measuring HDAC activity a synthetic peptide, i.e. the amino acids 14–21 of histone H4, was used. The substrate is biotinylated at the NH2-terminal part with a 6-aminohexanoic acid spacer, and is protected at the COOH-terminal part by an amide group and specifically [^3H]acetylated at lysine 16. The substrate, biotin-(6-aminohexanoic)Gly-Ala-([^3H]-acetyl-Lys-Arg-His-Arg-Lys-Val-NH2), was added in a buffer containing 25 mM Hepes, 1 M sucrose, 0.1 mg/ml BSA and 0.01% Triton X-100 at pH 7.4. After 30 min the deacetylation reaction was terminated by the addition of HCl and acetic acid. (final concentration 0.035 mM and 3.8 mM respectively). After stopping the reaction, the free ^3H-acetate was extracted with ethylacetate. After mixing and centrifugation, the radioactivity in an aliquot of the upper (organic) phase was counted in a β-counter.
For each experiment, controls (containing HeLa nuclear extract and DMSO without compound), a blank incubation (containing DMSO but no HeLa nuclear extract or compound) and samples (containing compound dissolved in DMSO and HeLa nuclear extract) were run in parallel. In first instance, compounds were tested at a concentration of 10^−5M. […] In each test the blank value was substracted from both the control and the sample values. The control sample represented 100% of substrate deactylation. For each sample the radioactivity was expressed as a percentage of the mean value of the controls. […] Herein the effects of test compounds are expressed as pIC50 (the negative log value of the IC50-value).

[3] = tested on: A2780 ovarian carcinoma cells; test: Antiproliferative activity on A2780 cells (MTT); type: cell-based, human; conditions: four days of incubation; for IC50: Homo sapiens, A2780, 96 h, read-out: Cellular activity pIC50 (converted)
Description: Cellular activity of the compounds of formula (I) was determined on A2780 tumour cells using a colorimetric assay for cell toxicity or survival (Mosmann Tim, Journal of Immunological Methods 65: 55–63, 1983)(see example C.2).
All compounds tested were dissolved in DMSO and further dilutions were made in culture medium. Final DMSO concentrations never exceeded 0.1% (v/v) in cell proliferation assays. Controls contained A2780 cells and DMSO without compound and blanks contained DMSO but no cells. MTT was dissolved at 5 mg/ml in PBS. A glycine buffer comprised of 0.1 M glycine and 0.1 M NaCl buffered to pH 10.5 with NaOH (1 N) was prepared (all reagents were from Merck).
The human A2780 ovarian carcinoma cells (a kind gift from Dr. T. C. Hamilton [Fox Chase Cancer Centre, Pennsylvania, USA]) were cultured in RPMI 1640 medium supplemented with 2 mM L-glutamine, 50 μg/ml gentamicin and 10% fetal calf serum. Cells were routinely kept as monolayer cultures at 37° C. in a humidified 5% CO2 atmosphere. Cells were passaged once a week using a trypsin/EDTA solution at a split ratio of 1:40. All media and supplements were obtained from Life Technologies. Cells were free of mycoplasma contamination as determined using the Gen-Probe Mycoplasma Tissue Culture kit (supplier: BioMérieux).
Cells were seeded in NUNC™ 96-well culture plates (Supplier: Life Technologies) and allowed to adhere to the plastic overnight. Densities used for plating were 1500 cells per well in a total volume of 200 μl medium. After cell adhesion to the plates, medium was changed and drugs and/or solvents were added to a final volume of 200 μl. Following four days of incubation, medium was replaced by 200 μl fresh medium and cell density and viability was assessed using an MTT-based assay. To each well, 25 μl MTT solution was added and the cells were further incubated for 2 hours at 37° C. The medium was then carefully aspirated and the blue MTT-formazan product was solubilized by addition of 25 μl glycine buffer followed by 100 μl of DMSO. […] Within an experiment, the results for each experimental condition are the mean of 3 replicate wells. For initial screening purposes, compounds were tested at a single fixed concentration of 10^−6 M. For active compounds, the experiments were repeated to establish full concentration-response curves. For each experiment, controls (containing no drug) and a blank incubation (containing no cells or drugs) were run in parallel. The blank value was subtracted from all control and sample values. For each sample, the mean value for cell growth (in absorbance units) was expressed as a percentage of the mean value for cell growth of the control. […] Herein the effects of test compounds are expressed as pIC50 (the negative log value of the IC50-value).

Row | solubility [1] | Enzyme activity pIC50 [2] | IC50 [3] | Cellular activity pIC50 [3] | SMILES
1 | – | <5 | > 10000 nM | – | Cc1cnc(C(=O)Nc2ccc(N3CCN(S(=O)(=O)c4ccc5ccccc5c4)CC3)cc2)cn1 [Compound 85]
2 | < 75.8 µM | 6.908 | 1230 nM | – | O=C(NO)c1ccc(N2CCN(S(=O)(=O)c3ccc(-c4ccccn4)s3)CC2)cc1 [Compound 68]
3 | – | <5 | > 10000 nM | – | O=C1CCC(C(=O)Nc2ccc(N3CCN(S(=O)(=O)c4ccc5ccccc5c4)CC3)cc2)N1 (stereo not shown) [Compound 84]
4 | – | <5 | > 10000 nM | – | O=C(NCCO)c1ccc(N2CCN(S(=O)(=O)c3ccc4ccccc4c3)CC2)cc1 [Compound 16]
5 | – | <5 | > 10000 nM | – | O=C(Nc1ccc(N2CCN(S(=O)(=O)c3ccc4ccccc4c3)CC2)cc1)c1ccc(=O)[nH]c1 [Compound 86]
6 | – | <5 | > 10000 nM | – | O=C(Nc1ccc(N2CCN(S(=O)(=O)c3ccc4ccccc4c3)CC2)cc1)c1ccc[nH]c1=O [Compound 87]
7 | – | 6.482 | > 10000 nM | – | O=C(NO)c1ccc(N2CCCN(S(=O)(=O)c3ccc4ccccc4c3)CC2)cc1 [Compound 1]
8 | – | <5 | – | – | O=C(NO)c1cccc(CN2CCN(S(=O)(=O)c3ccc4ccccc4c3)CC2)c1 [Compound 7]
9 | – | 6.423 | 6070 nM | – | O=C(NO)c1ccc(C(=O)N2CCN(S(=O)(=O)c3ccc4ccccc4c3)CC2)cc1 [Compound 89]
10 | – | 7.125 | 991 nM | – | O=C(NO)c1cnc(N2CCCN(S(=O)(=O)c3ccc4ccccc4c3)CC2)nc1 [Compound 141]
11 | – | <5 | 1740 nM | – | O=C(NO)c1cnc(N2CCN(S(=O)(=O)c3ccc4ccccc4c3)CC2)nc1N1CCN(S(=O)(=O)c2ccc3ccccc3c2)CC1 [Compound 117]

More lines, now with the values behind:

Row | SMILES | solubility [1] | Enzyme activity pIC50 [2] | IC50 [3] | Cellular activity pIC50 [3]
12 | Cn1nc(C(F)(F)F)cc1-c1ccc(S(=O)(=O)N2CCN(c3ncc(C(=O)NO)cn3)CC2)s1 [Compound 94] | 75.8 to 454 µM (≈ 39.2 to 235 µg/mL) | 7.497 | 218 nM | –
13 | CN(C)CCN(C)Cc1sccc1-c1ccc(S(=O)(=O)N2CCN(c3ncc(C(=O)NO)cn3)CC2)cc1 [Compound 146] | – | 8.565 | 119 nM | –
14 | O=C(NO)c1cnc(N2CCN(S(=O)(=O)c3ccc(-c4ccc5[nH]ccc5c4)cc3)CC2)nc1 [Compound 132] | – | 7.162 | 461 nM | –
15 | O=C(NO)c1ccc(N2CCN(S(=O)(=O)c3cc(C(F)(F)F)cc(C(F)(F)F)c3)CC2)cc1 [Compound 75] | – | <5 | 6870 nM | –
16 | O=C(NO)c1cnc(N2CCN(S(=O)(=O)c3ccc(-c4ccc[nH]4)cc3)CC2)nc1 [Compound 137] | 75.8 to 454 µM (≈ 32.5 to 195 µg/mL) | 7.169 | 1120 nM | –
17 | COc1ccccc1-c1ccc(S(=O)(=O)N2CCN(c3ncc(C(=O)NO)cn3)CC2)cc1 [Compound 103] | 75.8 to 454 µM (≈ 35.6 to 213 µg/mL) | 7.586 | 149 nM | –
18 | O=C(NO)c1cnc(N2CCN(S(=O)(=O)c3c(Cl)nc4sccn34)CC2)nc1 [Compound 95] | > 454 µM | 7.363 | 1100 nM | –
19 | Cn1cnc(S(=O)(=O)N2CCN(c3ccc(C(=O)NO)cc3)CC2)c1 [Compound 65] | > 454 µM | 5.775 | > 10000 nM | –
20 | CC(C)N(C)Cc1cccc(-c2ccc(S(=O)(=O)N3CCN(c4ncc(C(=O)NO)cn4)CC3)cc2)c1 [Compound 170] | > 454 µM | 8.227 | 65.3 nM | –
21 | O=C(NO)c1cnc(N2CCN(S(=O)(=O)c3ccc(-c4ccsc4CN4CCOCC4)cc3)CC2)nc1 [Compound 148] | < 75.8 µM | 7.94 | 176 nM | –
22 | Nc1ccc(-c2ccc(S(=O)(=O)N3CCN(c4ncc(C(=O)NO)cn4)CC3)cc2)cc1 [Compound 140] | – | 7.739 | 99.8 nM | –
23 | CN(C)Cc1ccc(-c2ccc(S(=O)(=O)N3CCN(c4ncc(C(=O)NO)cn4)CC3)cc2)cc1 [Compound 163] | – | 8.553 | 42.7 nM | –
24 | O=C(NO)c1cnc(N2CCN(S(=O)(=O)c3ccc4c(Cl)cccc4c3)CC2)nc1 [Compound 97] | – | 7.938 | 125 nM | –
25 | O=C(NO)c1cnc(N2CCN(S(=O)(=O)c3ccc(-c4cc(C(F)(F)F)cc(C(F)(F)F)c4)cc3)CC2)nc1 [Compound 180] | – | <5 | > 10000 nM | –
26 | O=C(NO)c1cnc(N2CCN(S(=O)(=O)c3ccc(-c4ccsc4)cc3)CC2)nc1 [Compound 104] | – | 8.152 | 58.5 nM | –
27 | O=C(NO)c1cc([N+](=O)[O-])ccc1N1CCN(S(=O)(=O)c2ccc(Cl)s2)CC1 [Compound 22] | – | <5 | – | –
28 | O=C(NO)c1cnc(N2CCN(S(=O)(=O)c3ccc(-c4ccccc4OCCN4CCOCC4)cc3)CC2)nc1 [Compound 153] | – | 8.7 | 275 nM | –
29 | COc1ccc(OC)c(S(=O)(=O)N2CCN(c3ccc(C(=O)NO)cc3)CC2)c1 [Compound 77] | – | 5.937 | 7100 nM | –
30 | O=C(NO)c1cnc(N2CCN(S(=O)(=O)c3ccc(-c4ccc(OCCN5CCOCC5)cc4)cc3)CC2)nc1 [Compound 155] | – | 7.939 | 87.1 nM | –
31 | CC(C)(C)c1ccc(S(=O)(=O)N2CCN(c3ncc(C(=O)NO)cn3)CC2)cc1 [Compound 92] | – | 7.876 | 723 nM | –
32 | O=C(NO)c1cnc(N2CCN(S(=O)(=O)c3ccc(-c4ccc(CO)cc4)cc3)CC2)nc1 [Compound 139] | – | 7.612 | 55.2 nM | –
33 | CN(C)CCCOc1ccc(-c2ccc(S(=O)(=O)N3CCN(c4ncc(C(=O)NO)cn4)CC3)cc2)cc1 [Compound 156] | – | 8.568 | 30 nM | –
34 | COc1ccc(-c2ccc(S(=O)(=O)N3CCN(c4ncc(C(=O)NO)cn4)CC3)cc2)cc1OC [Compound 101] | – | 6.671 | 101 nM | –
35 | O=C(NO)c1cnc(N2CCN(S(=O)(=O)c3ccc(-c4ccc(CN5CCOCC5)cc4)cc3)CC2)nc1 [Compound 162] | – | – | 117 nM | 7.039
